Laboratory results: PubChem BioAssay (NCI)
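How tested: cells in 96-well plates exposed to compound for 48 hours at five concentrations. GI50: concentration for 50% inhibition of growth. The concentration for full growth arrest is given as TGI.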

Experiments:
Test in all cases: growth of human tumour cells (NCI), 48 h
HCT-116 colon = test system: HCT-116 colon
RPMI-8226 leukemia = test system: RPMI-8226 leukemia
SNB-75 CNS = test system: SNB-75 CNS
A498 renal = test system: A498 renal
DU-145 prostate = test system: DU-145 prostate
MDA-MB-231 breast = test system: MDA-MB-231 breast
786-0 renal = test system: 786-0 renal
HL-60(TB) leukemia = test system: HL-60(TB) leukemia
MOLT-4 leukemia = test system: MOLT-4 leukemia
SF-295 CNS = test system: SF-295 CNS

Compound | GI50 (HCT-116 colon) | TGI (HCT-116 colon) | GI50 (RPMI-8226 leukemia) | TGI (RPMI-8226 leukemia) | GI50 (SNB-75 CNS) | TGI (SNB-75 CNS) | GI50 (A498 renal) | TGI (A498 renal) | GI50 (DU-145 prostate) | TGI (DU-145 prostate) | GI50 (MDA-MB-231 breast) | TGI (MDA-MB-231 breast) | GI50 (786-0 renal) | TGI (786-0 renal) | GI50 (HL-60(TB) leukemia) | TGI (HL-60(TB) leukemia) | GI50 (MOLT-4 leukemia) | TGI (MOLT-4 leukemia) | GI50 (SF-295 CNS) | TGI (SF-295 CNS)
Cn1c(=O)c(Oc2ccccc2F)cc2cnc(NC3CCOCC3)nc21 | > 25 µM | > 25 µM | > 25 µM | > 25 µM | > 19.8 µM | > 25 µM | > 14.7 µM | > 25 µM | > 25 µM | > 25 µM | > 25 µM | > 25 µM | > 25 µM | > 25 µM | > 25 µM | > 25 µM | > 25 µM | > 25 µM | > 25 µM | > 25 µM
CC[C@@]1(O)C(=O)NCc2c1cc1n(c2=O)Cc2cc3c(N)cccc3nc2-1 | 1.22 µM | 44.2 µM | 4.23 µM | > 32.1 µM | 0.873 µM | > 18.3 µM | 5.09 µM | 38.6 µM | 1.04 µM | 17.9 µM | 16.4 µM | > 60.3 µM | 1.37 µM | 11.7 µM | 1.19 µM | > 34.6 µM | 0.301 µM | 16.6 µM | 1.01 µM | > 46.8 µM
Clc1ccc2[nH]cc(-c3nc(-c4c[nH]c5ncccc45)cs3)c2c1 | 3.23 µM | 13.7 µM | 3.34 µM | 77.1 µM | 3.25 µM | 35.3 µM | 2.08 µM | 10.4 µM | 4.23 µM | 21.4 µM | 2.2 µM | 17.1 µM | 2.34 µM | 5.89 µM | 2.89 µM | 45.6 µM | 2.73 µM | 25.6 µM | 2.74 µM | 7.66 µM
CCCCNN |  | > 100 µM |  | > 100 µM |  | > 100 µM |  | > 100 µM |  | > 100 µM |  | > 100 µM |  | > 100 µM |  | > 100 µM |  | > 100 µM |  | > 100 µM
OCCSCc1ccccc1 |  | > 100 µM |  | > 100 µM |  | > 100 µM |  | > 100 µM |  | > 100 µM |  | > 100 µM |  | > 100 µM |  | > 100 µM |  | > 100 µM |  | > 100 µM
CN(C)N1C(=O)c2ccccc2NC1c1ccccc1 (stereo unspecified) |  | > 100 µM |  | > 100 µM |  | > 100 µM |  | > 100 µM |  | > 100 µM |  | > 100 µM |  | > 100 µM |  |  |  | > 100 µM |  | > 100 µM
O=C(Nc1ccc(F)cc1)c1c(NC(=O)C(F)(F)F)sc2c1CCCCC2 | 2.05 µM | 10.3 µM | 0.917 µM | 4.14 µM | 1.34 µM | 5.57 µM | 0.0527 µM | 0.752 µM | 3.43 µM | 87.1 µM | 1.75 µM | 7.3 µM | 2.43 µM | 10.5 µM | 2.68 µM | 8.32 µM | 2.65 µM | 15.2 µM | 1.01 µM | 3.26 µM
Cc1sc(C)c(Cc2c(C)sc(C)c2CCl)c1CCl | > 100 µM | > 100 µM | > 100 µM | > 100 µM | 51.5 µM | > 100 µM | > 100 µM | > 100 µM | > 100 µM | > 100 µM | > 100 µM | > 100 µM | > 100 µM | > 100 µM | > 100 µM | > 100 µM | > 100 µM | > 100 µM | > 100 µM | > 100 µM
Nc1nnc2cc(Cl)ccc2n1 | > 100 µM | > 100 µM | > 100 µM | > 100 µM | 9.06 µM | > 100 µM | > 100 µM | > 100 µM | > 100 µM | > 100 µM | > 100 µM | > 100 µM | > 100 µM | > 100 µM |  |  | > 100 µM | > 100 µM | 74 µM | > 100 µM
CC(=O)O[C@H]1CC[C@@]2(C)C(=CC[C@H]3[C@@H]4C/C(=C\c5cccc(OCCN6CCOCC6)c5)[C@H](OC(C)=O)[C@@]4(C)CC[C@@H]32)C1 | 4.1 µM | 15.9 µM | 2.99 µM | 9.92 µM | 3.85 µM | 22.8 µM | 15.3 µM | 29.1 µM | 23.3 µM | > 100 µM | 3.12 µM | 13.3 µM | 2.63 µM | 7.96 µM | 3.61 µM | 14.6 µM |  |  | 2.48 µM | 10.5 µM
NNc1cccc(/C=C/c2ccccc2)cc1=O | 7.3 µM | > 100 µM | 3.85 µM | > 100 µM | 31 µM | > 100 µM | 13 µM | 55.7 µM | 7.04 µM | > 100 µM | 4.73 µM | > 100 µM | 19.9 µM | > 100 µM | 3.97 µM | > 100 µM | 3.94 µM | > 100 µM |  | 
O=[N+]([O-])c1ccc(N/N=C/c2c(O)ccc3ccccc23)nc1 | 3.16 µM | > 100 µM | > 100 µM | > 100 µM | > 100 µM | > 100 µM | > 100 µM | > 100 µM | 6.77 µM | > 100 µM | 15.9 µM | > 100 µM | 13.3 µM | > 100 µM |  |  | 1.62 µM | > 100 µM | 4.9 µM | > 100 µM
